Experimental data as given in patent US20240262819A1, “NOVEL COMPOUNDS HAVING INHIBITORY ACTIVITY AGAINST GLUCOSYLCERAMIDE SYNTHASE OR PHARMACEUTICALLY ACCEPTABLE SALT THEREOF, PROCESSES FOR PREPARING THE SAME, AND PHARMACEUTICAL COMPOSITIONS COMPRISING THE SAME” (YUHAN CORPORATION, priority 2021, published 2024).
pIC50: −log10 of the molar value. Like-named read-outs stand apart in the source and are kept apart here.

Legend:
[1] = system: GM1 production in Jurkat cells; assay: cells; format: cell-based
[2] = molecular target: glucosylceramide synthase (GCS) (Homo sapiens (Human), UniProt Q16739); assay: Evaluation of inhibitory activities against GCS (A549 cell lysate, NBD C6-ceramide, HPLC); format: biochemical
Chain of glucosylceramide synthase (GCS) (Q16739 whole entry): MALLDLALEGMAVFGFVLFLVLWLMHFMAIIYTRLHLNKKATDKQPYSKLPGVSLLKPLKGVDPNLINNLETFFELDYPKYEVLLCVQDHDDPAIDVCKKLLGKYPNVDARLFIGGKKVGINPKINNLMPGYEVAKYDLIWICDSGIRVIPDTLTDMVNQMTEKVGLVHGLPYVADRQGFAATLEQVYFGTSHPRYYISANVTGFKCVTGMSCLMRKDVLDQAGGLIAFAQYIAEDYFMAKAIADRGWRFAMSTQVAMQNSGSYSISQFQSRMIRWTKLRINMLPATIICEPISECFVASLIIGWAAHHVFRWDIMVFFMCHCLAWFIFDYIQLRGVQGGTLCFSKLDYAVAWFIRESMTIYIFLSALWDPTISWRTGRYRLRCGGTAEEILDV
Summary of the method: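 GCS activity in A549 cell lysate (50 mM HEPES, pH 7.3) with NBD C6-ceramide, reacted 90 min at 37 °C. Lipids were chloroform/methanol-extracted and separated by normal-phase HPLC with fluorescence detection (ex 470/em 530 nm). GlcCer fraction of peak area was normalized between DMSO and ibiglustat, and IC50 obtained by curve fitting.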

[3] = % GCS activity, A549 cell lysate, 37° C. for 90 minutes, read-out: IC50

Compound	pIC50 ([1]; Homo sapiens, Jurkat, 72 h)	pIC50 [2]	pIC50 ([1]; read-out: IC50)	pIC50 [2, 3]
CC(C)COc1cccc(-c2ccc3c(c2)CCC(C)(C)[C@H]3NC(=O)O[C@@H]2CN3CCC2CC3)c1 [Example 163, (S)-quinuclidin-3-yl((R)-6-(3-isobutoxyphenyl)-2,2-dimethyl-1,2,3,4-tetrahydronaphthalen-1-yl)carbamate]	8.89	8.09		
CCOc1c(C)cc(-c2ccc3c(c2)CCC(C)(C)[C@H]3NC(=O)O[C@@H]2CN3CCC2CC3)cc1C [Example 164, (S)-quinuclidin-3-yl((R)-6-(4-ethoxy-3,5-dimethylphenyl)-2,2-dimethyl-1,2,3,4-tetrahydronaphthalen-1-yl)carbamate]	8.08	8.86		
COc1ccc(-c2ccc3c(c2)CCC(C)(C)[C@H]3NC(=O)O[C@@H]2CN3CCC2CC3)cc1 [Example 166, (S)-quinuclidin-3-yl((R)-6-(4-methoxyphenyl)-2,2-dimethyl-1,2,3,4-tetrahydronaphthalen-1-yl)carbamate]	8.23	9.16		
CC(C)Oc1ccc(-c2ccc3c(c2)CCC(C)(C)[C@H]3NC(=O)O[C@@H]2CN3CCC2CC3)cc1 [Example 167, (S)-quinuclidin-3-yl((R)-6-(4-isopropoxyphenyl)-2,2-dimethyl-1,2,3,4-tetrahydronaphthalen-1-yl)carbamate]	8.50	9.43		
CCc1ccc(-c2ccc3c(c2)CCC(C)(C)[C@H]3NC(=O)O[C@@H]2CN3CCC2CC3)cc1F [Example 169, (S)-quinuclidin-3-yl((R)-6-(4-ethyl-3-fluorophenyl)-2,2-dimethyl-1,2,3,4-tetrahydronaphthalen-1-yl)carbamate]	8.77	9.85		
CCc1ccc(-c2cc3c(cc2F)[C@H](NC(=O)O[C@@H]2CN4CCC2CC4)C(C)(C)CC3)cc1 [Example 170, (S)-quinuclidin-3-yl((R)-6-(4-ethylphenyl)-7-fluoro-2,2-dimethyl-1,2,3,4-tetrahydronaphthalen-1-yl)carbamate]	8.85	9.51		
CCCCc1ccc(-c2cc3c(cc2F)[C@H](NC(=O)O[C@@H]2CN4CCC2CC4)C(C)(C)CC3)cc1 [Example 173, (S)-quinuclidin-3-yl((R)-6-(4-butylphenyl)-7-fluoro-2,2-dimethyl-1,2,3,4-tetrahydronaphthalen-1-yl)carbamate]	9.52	9.62		
CC(C)Cc1ccc(-c2cc3c(cc2F)[C@H](NC(=O)O[C@@H]2CN4CCC2CC4)C(C)(C)CC3)cc1 [Example 174, (S)-quinuclidin-3-yl((R)-7-fluoro-6-(4-isobutylphenyl)-2,2-dimethyl-1,2,3,4-tetrahydronaphthalen-1-yl)carbamate]	9.05	9.46		
CCCCOc1ccc(-c2cc3c(cc2F)[C@H](NC(=O)O[C@@H]2CN4CCC2CC4)C(C)(C)CC3)cc1 [Example 178, (S)-quinuclidin-3-yl((R)-6-(4-butoxyphenyl)-7-fluoro-2,2-dimethyl-1,2,3,4-tetrahydronaphthalen-1-yl)carbamate]	9.40	9.66		
CC(C)COc1ccc(-c2cc3c(cc2F)[C@H](NC(=O)O[C@@H]2CN4CCC2CC4)C(C)(C)CC3)cc1 [Example 179, (S)-quinuclidin-3-yl((R)-7-fluoro-6-(4-isobutoxyphenyl)-2,2-dimethyl-1,2,3,4-tetrahydronaphthalen-1-yl)carbamate]	9.66	9.72		
Cc1cc(-c2cc3c(cc2F)[C@H](NC(=O)O[C@@H]2CN4CCC2CC4)C(C)(C)CC3)cc(C)c1OC(C)C [Example 182, (S)-quinuclidin-3-yl((R)-7-fluoro-6-(4-isopropoxy-3,5-dimethylphenyl)-2,2-dimethyl-1,2,3,4-tetrahydronaphthalen-1-yl)carbamate]	7.89	8.51		
CCCCOc1c(C)cc(-c2cc3c(cc2F)[C@H](NC(=O)O[C@@H]2CN4CCC2CC4)C(C)(C)CC3)cc1C [Example 183, (S)-quinuclidin-3-yl((R)-6-(4-butoxy-3,5-dimethylphenyl)-7-fluoro-2,2-dimethyl-1,2,3,4-tetrahydronaphthalen-1-yl)carbamate]	8.12	8.80		
COc1cccc(-c2cc3c(cc2F)[C@H](NC(=O)O[C@@H]2CN4CCC2CC4)C(C)(C)CC3)c1 [Example 184, (S)-quinuclidin-3-yl((R)-7-fluoro-6-(3-methoxyphenyl)-2,2-dimethyl-1,2,3,4-tetrahydronaphthalen-1-yl)carbamate]	8.64	9.52		
CCOc1cccc(-c2cc3c(cc2F)[C@H](NC(=O)O[C@@H]2CN4CCC2CC4)C(C)(C)CC3)c1 [Example 185, (S)-quinuclidin-3-yl((R)-6-(3-ethoxyphenyl)-7-fluoro-2,2-dimethyl-1,2,3,4-tetrahydronaphthalen-1-yl)carbamate]	8.44	9.52		
CCCCOc1cccc(-c2cc3c(cc2F)[C@H](NC(=O)O[C@@H]2CN4CCC2CC4)C(C)(C)CC3)c1 [Example 186, (S)-quinuclidin-3-yl((R)-6-(3-butoxyphenyl)-7-fluoro-2,2-dimethyl-1,2,3,4-tetrahydronaphthalen-1-yl)carbamate]	9.15	9.34		
CCc1cccc(-c2cc3c(cc2F)[C@H](NC(=O)O[C@@H]2CN4CCC2CC4)C(C)(C)CC3)c1 [Example 187, (S)-quinuclidin-3-yl((R)-6-(3-ethylphenyl)-7-fluoro-2,2-dimethyl-1,2,3,4-tetrahydronaphthalen-1-yl)carbamate]	8.89	9.29		
CCCc1cccc(-c2cc3c(cc2F)[C@H](NC(=O)O[C@@H]2CN4CCC2CC4)C(C)(C)CC3)c1 [Example 188, (S)-quinuclidin-3-yl((R)-7-fluoro-2,2-dimethyl-6-(3-propylphenyl)-1,2,3,4-tetrahydronaphthalen-1-yl)carbamate]	8.57	9.08		
CC(C)Cc1cccc(-c2cc3c(cc2F)[C@H](NC(=O)O[C@@H]2CN4CCC2CC4)C(C)(C)CC3)c1 [Example 189, (S)-quinuclidin-3-yl((R)-7-fluoro-6-(3-isobutylphenyl)-2,2-dimethyl-1,2,3,4-tetrahydronaphthalen-1-yl)carbamate]	8.22	8.98		
CC(C)c1cccc(-c2cc3c(cc2F)[C@H](NC(=O)O[C@@H]2CN4CCC2CC4)C(C)(C)CC3)c1 [Example 190, (S)-quinuclidin-3-yl((R)-7-fluoro-6-(3-isopropylphenyl)-2,2-dimethyl-1,2,3,4-tetrahydronaphthalen-1-yl)carbamate]	8.72	9.14		
CC(C)COc1cccc(-c2cc3c(cc2F)[C@H](NC(=O)O[C@@H]2CN4CCC2CC4)C(C)(C)CC3)c1 [Example 191, (S)-quinuclidin-3-yl((R)-7-fluoro-6-(3-isobutoxyphenyl)-2,2-dimethyl-1,2,3,4-tetrahydronaphthalen-1-yl) carbamate]			8.64	9.21
CCCOc1cccc(-c2cc3c(cc2F)[C@H](NC(=O)O[C@@H]2CN4CCC2CC4)C(C)(C)CC3)c1 [Example 192, (S)-quinuclidin-3-yl((R)-7-fluoro-2,2-dimethyl-6-(3-propoxyphenyl)-1,2,3,4-tetrahydronaphthalen-1-yl) carbamate]			8.54	9.28
CCOc1c(C)cc(-c2cc3c(cc2F)[C@H](NC(=O)O[C@@H]2CN4CCC2CC4)C(C)(C)CC3)cc1C [Example 195, (S)-quinuclidin-3-yl((R)-6-(4-ethoxy-3,5-dimethylphenyl)-7-fluoro-2,2-dimethyl-1,2,3,4-tetrahydronaphthalen-1-yl)carbamate]	8.08	8.89		
CC(C)Oc1cccc(-c2cc3c(cc2F)[C@H](NC(=O)O[C@@H]2CN4CCC2CC4)C(C)(C)CC3)c1 [Example 196, (S)-quinuclidin-3-yl((R)-7-fluoro-6-(3-isopropoxyphenyl)-2,2-dimethyl-1,2,3,4-tetrahydronaphthalen-1-yl)carbamate]	8.22	9.37		
(S)-quinuclidin-3-yl((R)-2,2-dimethyl-6-(3-propylphenyl)-1,2,3,4-tetrahydronaphthalen-1-yl) carbamate [Example 156]			8.72	9.21
(S)-quinuclidin-3-yl((R)-7-fluoro-6-(4-isopropylphenyl)-2,2-dimethyl-1,2,3,4-tetrahydronaphthalen-1-yl) carbamate [Example 172]			9.07	9.48
(S)-quinuclidin-3-yl((R)-7-fluoro-6-(4-methoxyphenyl)-2,2-dimethyl-1,2,3,4-tetrahydronaphthalen-1-yl) carbamate [Example 175]			8.42	9.55
